Assay results from publication PMC9680484, “Synthesis, Biophysical Interaction of DNA/BSA, Equilibrium and Stopped-Flow Kinetic Studies, and Biological Evaluation of bis(2-Picolyl)amine-Based Nickel(II) Complex” (Biomimetics, 2022).
Where “and” joins values, the source holds several entries; their conditions need not be identical. Equal values may be shown once. Read-outs that look alike come from different tables or passages of the source.

Key:
[1] = test system: human liver cancer (HepG2) cell lines; test: MTT cytotoxicity assay, liver cancer cells; format: cell-based; settings: HepG2, MTT, 24 h
Procedure: Methyl thiazolyl tetrazolium (MTT) colorimetry [47] was used to assess the cytotoxicity of BPA and one for human liver cancer (HepG2) cell lines. MTT can be converted into formazan by living cells with an active metabolism, but this ability is lost in dying cells. Therefore, in this study, the MTT assay was used to determine how many viable cells there were. Before the investigated compounds were added, cells were cultured in 96-well flat-bottomed microtiter plates at a density of 1 × 10^4 cells/well (100 l/well) for 70 to 80 percent confluent cultures, and the cultures were then incubated at 37 °C and 5 percent CO2 for 24 h. The compounds were used in a range of concentrations (31.2, 62.5, 125.0, 250.0, 500.0, and 1000.0 g/mL), and the cells were cultured for 24 h. Then, 10 µl of the 12 mM MTT stock solution (5 mg/mL MTT in sterile PBS) was added to each well at the conclusion of the incubation period. After that, the plate was incubated at 37 °C for 4 h. […] On an ELISA reader, the absorbance at 570 nm was read (StatFax-2100, Awareness Technology, Inc., USA). The percentage of cells inhibited was calculated using: % CellInhibition=100−T−T0/C−T0 where T is the optical density of the test sample, To is the optical density at time zero, and C is the optical density of the control.

[2] = biological target: T1, BSA (Bos taurus, UniProt P02769); test: Stopped-flow kinetics of BSA binding; design: species or system bovine; settings: BSA
Procedure: (§1) The kinetics of protein and DNA binding was measured using an Applied KinetAsyst SF-61DX2 stopped-flow instrument. At 25 °C, equal volumes of compounds against protein and DNA solutions were rapidly mixed in the stopped-flow instrument. The binding reactions were studied using a 10-fold excess of the ligand BPA and NiBPA under pseudo-first-order conditions. For each experimental condition, all recorded rate constants were taken into account, from which the mean values of at least three independent kinetic runs were calculated.
(§2) Because many medicines with lower cellular toxicity have a slow DNA dissociation rate, several factors, such as the strength of binding and the drug’s affinity for DNA, as well as the kinetic stability of DNA-drug adducts, may contribute to antitumor effectiveness. The stopped-flow technique was used to study in-vitro protein/DNA binding to BPA and propose a mechanism in order to obtain such information. The kinetic traces were recorded at 265 nm within 100 s (BPA) and 5 s (NiBPA), respectively, to capture the interaction process with BSA. […] In the case of ct-DNA interaction, the kinetic traces were recorded at 290 nm, and both BPA and NiBPA followed a similar pattern since kinetic traces for BPA and NiBPA were collected within 100 s, covering the entire interaction process. […] Over the concentration range of BPA and NiBPA, the study of kinetic traces performed under pseudo-first-order conditions may be fitted to two kinetic phases (Figure 7) evaluated using the following Equation (3):(3) A=a1e^−kobs1t1+a2e^−kobs2t2+A0
(§3) The interaction process involves at least two steps, and the stopped-flow records the two kinetic phases as a fast binding (rate constant kobs1) followed by a slow first-order isomerization process (rate constant kobs2). […] Both kon and koff were used to calculate the equilibrium association constants Kaff [kon/koff M^−1] and the equilibrium dissociation constants Kd [koff/kon M].
The difference between the free energy, G, of BSA molecules alone in the solution and when bound together is related to the equilibrium dissociation constant, Kd1. Equation (4) gives the binding free energy change Gbind. (4) ΔGbind=RT·ln(Kd)

[3] = biological target: T1, BSA; test: BSA UV-vis absorption titration (Benesi-Hildebrand binding constant); design: species or system bovine; settings: BSA UV absorption
Procedure: Interactions between the most common blood protein, serum albumin, and complexes have sparked a lot of interest recently because of their structural similarity to human serum albumin. To better understand the mechanism of interaction between BPA and its nickel(II) complex NiBPA with BSA, fluorescence quenching studies were carried out. BSA’s fluorescence is due to intrinsic protein characteristics, such as the presence of tryptophan and tyrosine residues. Variations in the emission spectra caused by protein conformational changes, subunit interaction, substrate binding, or denaturation are largely attributed to the tryptophan residue. As a result, BSA fluorescence behavior can provide valuable insight into protein structure, dynamics, and folding. Fluorescence titration experiments were performed at room temperature with BSA and different concentrations of BPA and NiBPA in the range 200–600 nm (λex. 280 nm). A slight red shift (40 percent, BPA; 65 percent, NiBPA; Figure 3) reduced the intensity of BSA fluorescence at 343 nm. The presence of the protein’s active site in a hydrophobic environment causes the redshift. […] The quenching mechanism can be set to either static or dynamic operation. […] The binding constants for BPA and NiBPA were calculated using Equation (1) and found to be 0.4 × 10^4 M^−1 and 0.82 × 10^4 M^−1, respectively (Table 1). […]

[4] = test system: S. aureus; test: Antibacterial MIC/MBC, S. aureus; format: cell-based; settings: Gram-positive
Procedure: (§4) Several studies have shown that organic compound coordination with a metallic element results in significant changes in the biological activity of both the organic ligand and the metal. As a result, BPA and its nickel complex NiBPA were tested in vitro for antibacterial activity against Gram-positive (S. aureus and S epidermidis) and Gram-negative (P. mirabilis and E. coli) bacteria. Figure 10 depicts the antibacterial function of BPA and NiBPA as the diameter of the growth-inhibition region in millimeters. […] The MBC is identified by determining the lowest concentration of antibacterial agents that reduces the viability of the initial bacterial inoculum by 99.9%. The MIC or MBC strain was chosen based on the value agreed upon on two or more occasions. The antibiotic tobramycin (TOB) was used to control the situation. The inhibition zone, as well as the MIC and MBC data, leads to the following conclusions. […] This is explained by the metal ion’s polarity and cationic charge, as NiBPA has a cationic property with two positive charges. […] The interaction between Gram-negative bacteria and NiBPA was stronger than that of Gram-positive bacteria due to the higher negative charge on the cell surface, despite the presence of an outer membrane in Gram-negative bacteria (see Figure 11).

[5] = test system: P. aeruginosa; test: Antibacterial MIC/MBC, P. aeruginosa; format: cell-based; design: MIC: unit not given here; settings: Gram-negative
[6] = test system: E. faecalis; test: Antibacterial MIC/MBC, E. faecalis; format: cell-based; design: MIC: unit not given here; settings: Gram-positive
[7] = test system: E. coli; test: Antibacterial MIC/MBC, E. coli; format: cell-based; settings: Gram-negative
Procedure: as §4

[8] = biological target: T1, BSA; test: BSA fluorescence quenching titration (Stern-Volmer / Scatchard); format: binding, bovine; settings: for KSV: Stern-Volmer constant
Procedure: The excitation and emission wavelengths of BSA at 280 nm were monitored in protein binding studies using BSA ([…]) solution prepared in Tris-HCl buffer (pH 7.5), and the solution was stored in a dark place at 4 °C.
Interactions between the most common blood protein, serum albumin, and complexes have sparked a lot of interest recently because of their structural similarity to human serum albumin. To better understand the mechanism of interaction between BPA and its nickel(II) complex NiBPA with BSA, fluorescence quenching studies were carried out. BSA’s fluorescence is due to intrinsic protein characteristics, such as the presence of tryptophan and tyrosine residues. Variations in the emission spectra caused by protein conformational changes, subunit interaction, substrate binding, or denaturation are largely attributed to the tryptophan residue. As a result, BSA fluorescence behavior can provide valuable insight into protein structure, dynamics, and folding. Fluorescence titration experiments were performed at room temperature with BSA and different concentrations of BPA and NiBPA in the range 200–600 nm (λex. 280 nm). A slight red shift (40 percent, BPA; 65 percent, NiBPA; Figure 3) reduced the intensity of BSA fluorescence at 343 nm. The presence of the protein’s active site in a hydrophobic environment causes the redshift. […] The quenching mechanism can be set to either static or dynamic operation. Dynamic quenching occurs when the fluorophore and the quencher come into contact during the excited state’s transient existence, whereas static quenching is caused by the formation of a complex between the quencher and the fluorophore in the ground state. BSA (fluorophore) has a UV-vis absorption spectrum that can be used to investigate the type of quenching quickly and easily. […] The binding constants for BPA and NiBPA were calculated using Equation (1) and found to be 0.4 × 10^4 M^−1 and 0.82 × 10^4 M^−1, respectively (Table 1). […] Furthermore, the findings are in line with previous research on related compounds.
The Kq value is much higher than the 2 × 10^10 M^−1s^−1 maximum scatters collision quenching constant of quenchers with BSA (Kq = Ksv/τ0), where KSV is the Stern–Volmer constant and τ0 is the average lifetime of the BSA in the absence of the quencher (τ0 = 10 ns). This supports the idea of a static quenching mechanism. […] It is second order in [Q] and thus leads to upward curvy plots of I0/I versus [Q] at higher [Q].
The quenching constant (Kq) was calculated using the Stern–Volmer and Scatchard equation and plotted as I0/I vs. [Q] to better understand the quenching process (Figure 3). In addition, Scatchard Equation (2) was used to calculate the equilibrium binding constant:log[(I0 − I)/I] = log Kbin + n log [Q](2) where Kbin is the compound’s BSA binding constant and n is the number of binding sites. From the log (I0 − I)/I vs. log [Q] plot (Figure 5), the binding constant (Kbin) and the number of binding sites (n) have been calculated (Table 1). The estimated value of n (∼1) for BPA and NiBPA strongly supported the existence of a single binding site in BSA.

[9] = test system: ct-DNA; test: Stopped-flow kinetics of ct-DNA binding
Procedure: as §1, §2
as §3, with “M]. […]” for “M].”

[10] = MTT cytotoxicity assay, normal cells; format: cell-based; settings: normal liver (Wi38) cells, MTT, 24 h
[11] = test system: ct-DNA; test: ct-DNA electronic absorption titration; format: binding; settings: phosphate buffer pH 7.2
Procedure: Electronic absorption measurements were performed with a constant concentration of ctDNA and increasing concentrations of BPA and NiBPA (Na-phosphate buffer solution, pH 7.2). […] Intrinsic fluorescence was measured with the ct-DNA solution at the excitation wavelength (ex, 330), and emission spectra were recorded at 550–700 nm after aliquot addition of BPA and NiBPA.
Absorption titration information was depicted in Figure 6 to understand the mode of interaction of complexes with ct-DNA. Increased addition of a solution of BPA to a solution of ct-DNA causes hyperchromic for the band at 264 nm with a blue shift of 5 nm (259 nm), as shown in the absorption titration spectrum (Figure 6). The band at 278 nm, on the other hand, was hypochromic with a small blue shift of 2 nm (276 nm). The presence of […] in the medium was indicated by the isosbestic point in the titration curve at 274 nm. […] The hydrogen bonds formed with the –OH and SH groups of BPA and NiBPA are caused by the presence of many accessible hydrogen binding sites in the DNA major and minor grooves. The binding constants for BPA (0.16 × 10^5 M^−1) and NiBPA (0.52 × 10^5 M^−1) are similar to those of well-known groove binding rather than classical intercalation, implying that NiBPA interacts with ct-DNA much more strongly than BPA under investigation.

In the case of `O.[Cl][Ni][Cl].c1ccc(CNCc2ccccn2)nc1` [NiBPA, [(BPA)NiCl2(H2O)]], the IC50 [1] is reported as 75.0 ± 0.5 µg/mL, the “Ka1 (k1/k−1)” value ([2]; 1st step, 25 °C) is reported as 7.3 M⁻¹ and the ΔG1 ([2]; 1st step, ΔGbind = RT·ln(Kd)) is reported as -1.22 kcal/mol. The ΔG2 ([2]; 2nd step) was −8.3 kJmol^−1, the “k−2” value ([2]; 2nd step, 25 °C) was 620 ± 6 10^−3s^−1 and the “K2 (2nd step)” value ([2]; 2nd step, 25 °C, irreversible step for BPA) was 2.0 ± 0.2 M⁻¹ s⁻¹. The Ka2 ([2]; 2nd step, 25 °C, listed as 1) was 3.2 M⁻¹, the “k1 (1st step, second-order association constant)” value ([2]; 25 °C) was 53.6 ± 9.0 M⁻¹ s⁻¹ and the “k−1 (1st step, first-order dissociation constant)” value ([2]; 25 °C) was 7.3 ± 0.3 s⁻¹. The “Ka (overall binding)” value ([2]; overall) was 30.3 M⁻¹, the “ΔG (overall reaction)” value ([2]; overall) was −8.4 kJmol^−1 and the Kd ([2]; overall, read-out: Kd (overall binding)) was 34 mM. The Kd ([2]; overall, read-out: Kd (overall reaction)) was 32.3 mM, the “binding constant (BSA)” value [3] was 8200 M⁻¹ and the MBC [4] was 76.0 µg/mL. It also gave an MBC [5] of 70.0 µg/mL, an MIC [5] of 35.0 and an MBC [6] of 80.0 µg/mL. The MIC [6] was 43.0, the MBC [7] was 63.0 µg/mL and the Kbin ([8]; BSA binding constant from Scatchard equation) was 0.90 10^4 M^−1. The “n (number of binding sites)” value ([8]; Scatchard plot log (I0 − I)/I vs. log [Q]) was 1.3, the KSV [8] was 7000 M⁻¹ and the KSV ([8]; BSA fluorescence, λex 280 nm, room temperature) was 0.70 10^4 M^−1. For the same compound, the Kq ([8]; quenching constant, Kq = Ksv/τ0, τ0 = 10 ns) was 0.70 10^12 M^−1s^−1, the “reduction of BSA fluorescence intensity at 343 nm” value ([8]; λex 280 nm, room temperature) was 65% and the “Ka1 (k1/k−1)” value ([9]; 1st step, 25 °C) was 53.6 M⁻¹. For the same compound, the Kd ([9]; 1st step, 25 °C, read-out: Kd1 (k−1/k1)) was 19 mM, the “K2 (2nd step)” value ([9]; 2nd step, 25 °C) was 0.23 ± 0.01 M⁻¹ s⁻¹ and the “Ka2 (k2/k−2)” value ([9]; 2nd step, 25 °C) was 39 M⁻¹ and 39.0 M⁻¹. For the same compound, the “k−2” value ([9]; 2nd step, 25 °C) was 5.9 ± 0.5 10^−3s^−1, the “k1 (1st step, second-order association constant)” value ([9]; 25 °C) was 19.3 ± 2.3 M⁻¹ s⁻¹ and the “k−1 (1st step, first-order dissociation constant)” value ([9]; 25 °C) was 0.36 ± 0.1 s⁻¹. For the same compound, the “Ka (overall binding)” value ([9]; overall) was 2077 M⁻¹, the IC50 [10] was 120.0 ± 0.5 µg/mL and the “binding constant (ct-DNA)” value [11] was 52000 M⁻¹.
